This data set is described as follows: lipophilicity test, octanol/PBS partition with gamma counter. The format is physicochemical.

In the case of `CCOC(=O)c1ncn2c1CN(C)C(=O)c1cc([18F])ccc1-2` [F-18-flumazenil], the “log P value” is 1.49±0.12.
